# Data reported in article PMC9954146, “Anti-Leukaemic Activity of Rilpivirine Is Mediated by Aurora A Kinase Inhibition” (Cancers, 2023).
# What was measured:
# Assay in all cases: Kinase panel
# Type in all cases: biochemical
# MYLK2(h) = target: T1, MYLK2(h) (Homo sapiens, UniProt Q9H1R3); details: read-out: % Residual Activity
# T1 construct: purchased Eurofins (KinaseProfiler)
# In short: (§1)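 Selectivity panel (kinome-wide), rilpivirine as test compound. Readout: radiolabel incorporation. ATP = Km of the respective kinase. Ki calculated from IC50 (Cheng–Prusoff).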
# [1] = target: PI3 Kinase (p110a/p85a)(h) (Homo sapiens, UniProt P42336); details: read-out: % Residual Activity
# In short: as §1
# IRAK1(h) = target: T2, IRAK1(h) (Homo sapiens, UniProt P51617); details: read-out: % Residual Activity
# T2 construct: purchased Eurofins (KinaseProfiler)
# In short: as §1
# MEKK2(h) = target: T3, MEKK2(h) (Homo sapiens, UniProt Q9Y2U5); details: read-out: % Residual Activity
# T3 construct: purchased Eurofins (KinaseProfiler)
# In short: as §1
# Yes(h) = target: T4, Yes(h) (Homo sapiens, UniProt P07947)
# T4 construct: purchased Eurofins (KinaseProfiler)
# In short: as §1
# Met(Y1248H)(h) = target: T5, Met(Y1248H)(h) (Homo sapiens, UniProt P08581, Y1230H); details: read-out: % Residual Activity
# T5 construct: purchased Eurofins (KinaseProfiler)
# In short: as §1
# NUAK2(h) = target: T6, NUAK2(h) (Homo sapiens, UniProt Q9H093); details: read-out: % Residual Activity
# T6 construct: purchased Eurofins (KinaseProfiler)
# In short: as §1
# LATS1(h) = target: T7, LATS1(h) (Homo sapiens, UniProt O95835); details: read-out: % Residual Activity
# T7 construct: purchased Eurofins (KinaseProfiler)
# In short: as §1
# ZAK(h) = target: T8, ZAK(h) (Homo sapiens, UniProt Q9NYL2); details: read-out: % Residual Activity
# T8 construct: purchased Eurofins (KinaseProfiler)
# In short: as §1
# AMPKα1(h) = target: T9, AMPKα1(h) (Homo sapiens, UniProt Q13131); details: read-out: % Residual Activity
# T9 construct: purchased Eurofins (KinaseProfiler)
# In short: as §1
# TRB2(h) = target: T10, TRB2(h) (Homo sapiens, UniProt Q92519); details: read-out: % Residual Activity
# T10 construct: purchased Eurofins (KinaseProfiler)
# In short: as §1
# IGF-1R(h) = target: T11, IGF-1R(h) (Homo sapiens, UniProt P08069); details: read-out: % Residual Activity
# T11 construct: purchased Eurofins (KinaseProfiler)
# In short: as §1
# Mnk2(h) = target: T12, Mnk2(h) (Homo sapiens, UniProt Q9HBH9); details: read-out: % Residual Activity
# T12 construct: purchased Eurofins (KinaseProfiler)
# In short: as §1
# Tie2(R849W)(h) = target: T13, Tie2(R849W)(h) (Homo sapiens, UniProt Q02763, R849W); details: read-out: % Residual Activity
# T13 construct: purchased Eurofins (KinaseProfiler)
# In short: as §1
# Fgr(h) = target: T14, Fgr(h) (Homo sapiens, UniProt P09769); details: read-out: % Residual Activity
# T14 construct: purchased Eurofins (KinaseProfiler)
# In short: as §1
# JAK1(h) = target: T15, JAK1(h) (Homo sapiens, UniProt P23458); details: read-out: % Residual Activity
# T15 construct: purchased Eurofins (KinaseProfiler)
# In short: as §1
# EphB4(h) = target: T16, EphB4(h) (Homo sapiens, UniProt P54760); details: read-out: % Residual Activity
# T16 construct: purchased Eurofins (KinaseProfiler)
# In short: as §1
# [2] = target: T17, PI3 Kinase (p110a/p85a)(m) (Mus musculus, UniProt P42337); details: read-out: % Residual Activity
# T17 construct: purchased Eurofins (KinaseProfiler)
# In short: as §1
# MAP4K5(h) = target: T18, MAP4K5(h) (Homo sapiens, UniProt Q9Y4K4); details: read-out: % Residual Activity
# T18 construct: purchased Eurofins (KinaseProfiler)
# In short: as §1
# [3] = target: PI3 Kinase (p110a(E542K)/p85a)(m) (Mus musculus, UniProt P42337, E542K); details: read-out: % Residual Activity
# In short: as §1
# Flt3(D835Y)(h) = target: T19, Flt3(D835Y)(h) (Homo sapiens, UniProt P36888, D835Y); details: read-out: % Residual Activity
# T19 construct: purchased Eurofins (KinaseProfiler)
# In short: as §1
# Snk(h) = target: T20, Snk(h) (Homo sapiens, UniProt Q9NYY3); details: read-out: % Residual Activity
# T20 construct: purchased Eurofins (KinaseProfiler)
# In short: as §1
# MAPKAP-K2(h) = target: T21, MAPKAP-K2(h) (Homo sapiens, UniProt P49137); details: read-out: % Residual Activity
# T21 construct: purchased Eurofins (KinaseProfiler)
# In short: as §1
# TBK1(h) = target: T22, TBK1(h) (Homo sapiens, UniProt Q9UHD2); details: read-out: % Residual Activity
# T22 construct: purchased Eurofins (KinaseProfiler)
# In short: as §1
# PDHK2(h) = target: T23, PDHK2(h) (Homo sapiens, UniProt Q15119); details: read-out: % Residual Activity
# T23 construct: purchased Eurofins (KinaseProfiler)
# In short: as §1
# Src(T341M)(h) = target: T24, Src(T341M)(h) (Homo sapiens, UniProt P12931, T341M); details: read-out: % Residual Activity
# T24 construct: purchased Eurofins (KinaseProfiler)
# In short: as §1
# [4] = target: PI3 Kinase (p110b/p85a)(m) (Mus musculus, UniProt Q8BTI9); details: read-out: % Residual Activity
# In short: as §1
# CK1ε(h) = target: T25, CK1ε(h) (Homo sapiens, UniProt P49674); details: read-out: % Residual Activity
# T25 construct: purchased Eurofins (KinaseProfiler)
# In short: as §1
# CHK1(h) = target: T26, CHK1(h) (Homo sapiens, UniProt O14757); details: read-out: % Residual Activity
# T26 construct: purchased Eurofins (KinaseProfiler)
# In short: as §1
# NEK2(h) = target: T27, NEK2(h) (Homo sapiens, UniProt P51955); details: read-out: % Residual Activity
# T27 construct: purchased Eurofins (KinaseProfiler)
# In short: as §1
# CLK2(h) = target: T28, CLK2(h) (Homo sapiens, UniProt P49760); details: read-out: % Residual Activity
# T28 construct: purchased Eurofins (KinaseProfiler)
# In short: as §1
# TYK2(h) = target: T29, TYK2(h) (Homo sapiens, UniProt P29597); details: read-out: % Residual Activity
# T29 construct: purchased Eurofins (KinaseProfiler)
# In short: as §1
# FAK(h) = target: T30, FAK(h) (Homo sapiens, UniProt Q05397); details: read-out: % Residual Activity
# T30 construct: purchased Eurofins (KinaseProfiler)
# In short: as §1
# ALK(h) = target: T31, ALK(h) (Homo sapiens, UniProt Q9UM73); details: read-out: % Residual Activity
# T31 construct: purchased Eurofins (KinaseProfiler)
# In short: as §1
# Pim-1(h) = target: T32, Pim-1(h) (Homo sapiens, UniProt P11309)
# T32 construct: purchased Eurofins (KinaseProfiler)
# In short: as §1
# MSK2(h) = target: T33, MSK2(h) (Homo sapiens, UniProt O75676); details: read-out: % Residual Activity
# T33 construct: purchased Eurofins (KinaseProfiler)
# In short: as §1
# TTBK2(h) = target: T34, TTBK2(h) (Homo sapiens, UniProt Q6IQ55); details: read-out: % Residual Activity
# T34 construct: purchased Eurofins (KinaseProfiler)
# In short: as §1
# T4 sequence (P07947 whole entry): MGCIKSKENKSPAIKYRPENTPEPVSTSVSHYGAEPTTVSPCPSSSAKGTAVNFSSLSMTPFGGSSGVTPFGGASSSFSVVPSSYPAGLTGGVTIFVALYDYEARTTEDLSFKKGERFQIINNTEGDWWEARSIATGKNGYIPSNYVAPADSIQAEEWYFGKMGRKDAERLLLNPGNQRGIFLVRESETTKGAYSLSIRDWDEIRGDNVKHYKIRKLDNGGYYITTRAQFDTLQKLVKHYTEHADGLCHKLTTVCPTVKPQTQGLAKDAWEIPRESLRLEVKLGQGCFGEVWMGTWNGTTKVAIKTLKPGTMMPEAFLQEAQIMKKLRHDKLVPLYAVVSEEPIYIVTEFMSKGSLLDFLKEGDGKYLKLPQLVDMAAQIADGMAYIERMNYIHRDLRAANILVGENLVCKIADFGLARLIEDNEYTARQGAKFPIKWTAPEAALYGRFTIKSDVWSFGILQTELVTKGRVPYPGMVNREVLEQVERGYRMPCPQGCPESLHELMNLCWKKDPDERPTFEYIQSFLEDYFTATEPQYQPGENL
# T32 sequence (P11309 whole entry): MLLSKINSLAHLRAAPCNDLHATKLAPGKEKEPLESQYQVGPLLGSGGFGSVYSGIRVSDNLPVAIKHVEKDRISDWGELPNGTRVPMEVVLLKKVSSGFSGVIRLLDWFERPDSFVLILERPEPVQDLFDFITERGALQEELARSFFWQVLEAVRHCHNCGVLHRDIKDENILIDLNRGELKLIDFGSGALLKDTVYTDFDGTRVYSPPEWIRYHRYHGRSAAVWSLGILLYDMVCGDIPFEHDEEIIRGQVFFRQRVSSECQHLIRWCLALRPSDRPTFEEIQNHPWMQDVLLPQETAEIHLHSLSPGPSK
# T7 sequence (O95835 whole entry): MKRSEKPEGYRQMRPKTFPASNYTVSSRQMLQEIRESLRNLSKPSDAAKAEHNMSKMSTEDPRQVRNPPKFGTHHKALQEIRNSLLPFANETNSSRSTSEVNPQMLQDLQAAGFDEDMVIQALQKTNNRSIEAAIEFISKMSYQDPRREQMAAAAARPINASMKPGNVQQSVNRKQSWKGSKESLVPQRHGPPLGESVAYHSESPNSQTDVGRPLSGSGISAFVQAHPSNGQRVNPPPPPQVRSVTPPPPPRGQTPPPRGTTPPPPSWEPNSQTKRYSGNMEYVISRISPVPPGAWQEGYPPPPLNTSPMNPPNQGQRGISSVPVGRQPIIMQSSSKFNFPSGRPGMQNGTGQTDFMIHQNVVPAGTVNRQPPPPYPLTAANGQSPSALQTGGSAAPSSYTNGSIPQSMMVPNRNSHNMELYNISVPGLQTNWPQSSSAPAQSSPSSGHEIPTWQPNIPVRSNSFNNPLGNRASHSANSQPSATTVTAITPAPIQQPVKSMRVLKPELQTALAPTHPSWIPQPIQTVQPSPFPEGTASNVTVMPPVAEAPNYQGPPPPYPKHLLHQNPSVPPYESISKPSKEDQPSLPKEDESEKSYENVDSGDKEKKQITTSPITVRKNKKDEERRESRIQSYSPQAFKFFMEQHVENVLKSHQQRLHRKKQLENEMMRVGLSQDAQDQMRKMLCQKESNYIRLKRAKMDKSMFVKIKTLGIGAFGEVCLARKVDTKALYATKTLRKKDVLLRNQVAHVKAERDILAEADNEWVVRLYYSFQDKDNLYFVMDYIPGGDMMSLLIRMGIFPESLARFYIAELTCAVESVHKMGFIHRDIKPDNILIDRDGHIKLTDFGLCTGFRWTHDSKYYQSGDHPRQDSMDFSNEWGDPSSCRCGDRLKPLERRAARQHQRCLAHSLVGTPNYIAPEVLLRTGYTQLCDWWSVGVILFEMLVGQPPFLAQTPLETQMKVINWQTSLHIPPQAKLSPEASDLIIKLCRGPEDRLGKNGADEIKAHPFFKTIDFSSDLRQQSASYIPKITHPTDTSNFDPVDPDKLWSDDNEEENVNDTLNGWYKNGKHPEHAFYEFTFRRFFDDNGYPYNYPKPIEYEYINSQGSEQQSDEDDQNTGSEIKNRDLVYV
# T26 sequence (O14757 whole entry): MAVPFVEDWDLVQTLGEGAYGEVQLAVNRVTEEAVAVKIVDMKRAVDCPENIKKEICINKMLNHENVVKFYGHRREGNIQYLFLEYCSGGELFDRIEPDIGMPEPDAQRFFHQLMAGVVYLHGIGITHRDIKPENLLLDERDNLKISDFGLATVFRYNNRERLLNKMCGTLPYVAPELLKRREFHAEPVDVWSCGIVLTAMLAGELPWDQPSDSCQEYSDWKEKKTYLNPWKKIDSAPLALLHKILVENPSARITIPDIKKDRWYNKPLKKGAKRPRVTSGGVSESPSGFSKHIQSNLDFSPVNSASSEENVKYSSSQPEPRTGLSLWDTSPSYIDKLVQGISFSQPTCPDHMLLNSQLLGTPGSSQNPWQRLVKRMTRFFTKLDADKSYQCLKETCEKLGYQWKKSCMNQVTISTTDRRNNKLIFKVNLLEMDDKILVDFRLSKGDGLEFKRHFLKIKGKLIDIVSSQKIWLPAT
# T10 sequence (Q92519 whole entry): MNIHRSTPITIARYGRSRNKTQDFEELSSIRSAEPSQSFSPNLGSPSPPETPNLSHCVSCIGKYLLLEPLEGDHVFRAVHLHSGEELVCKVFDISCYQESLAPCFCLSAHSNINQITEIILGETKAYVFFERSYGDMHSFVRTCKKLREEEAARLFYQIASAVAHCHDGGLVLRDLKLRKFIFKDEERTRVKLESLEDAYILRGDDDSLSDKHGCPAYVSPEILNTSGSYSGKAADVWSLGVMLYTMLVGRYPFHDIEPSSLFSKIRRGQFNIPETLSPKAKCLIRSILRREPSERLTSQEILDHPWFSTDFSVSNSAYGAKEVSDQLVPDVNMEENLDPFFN
# T14 sequence (P09769 whole entry): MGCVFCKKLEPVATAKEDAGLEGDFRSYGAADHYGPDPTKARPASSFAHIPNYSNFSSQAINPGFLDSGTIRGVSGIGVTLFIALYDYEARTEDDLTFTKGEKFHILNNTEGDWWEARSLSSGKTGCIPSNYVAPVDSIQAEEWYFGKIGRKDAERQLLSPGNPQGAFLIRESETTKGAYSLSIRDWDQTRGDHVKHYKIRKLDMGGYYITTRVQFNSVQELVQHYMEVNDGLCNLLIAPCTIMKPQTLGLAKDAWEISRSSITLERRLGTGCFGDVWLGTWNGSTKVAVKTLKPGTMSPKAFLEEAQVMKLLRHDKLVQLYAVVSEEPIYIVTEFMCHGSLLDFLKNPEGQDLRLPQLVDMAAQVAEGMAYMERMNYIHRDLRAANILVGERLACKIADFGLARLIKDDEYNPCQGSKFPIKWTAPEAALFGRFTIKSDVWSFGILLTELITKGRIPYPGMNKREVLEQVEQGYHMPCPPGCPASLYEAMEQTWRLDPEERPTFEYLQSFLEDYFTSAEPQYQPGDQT
# T3 sequence (Q9Y2U5 whole entry): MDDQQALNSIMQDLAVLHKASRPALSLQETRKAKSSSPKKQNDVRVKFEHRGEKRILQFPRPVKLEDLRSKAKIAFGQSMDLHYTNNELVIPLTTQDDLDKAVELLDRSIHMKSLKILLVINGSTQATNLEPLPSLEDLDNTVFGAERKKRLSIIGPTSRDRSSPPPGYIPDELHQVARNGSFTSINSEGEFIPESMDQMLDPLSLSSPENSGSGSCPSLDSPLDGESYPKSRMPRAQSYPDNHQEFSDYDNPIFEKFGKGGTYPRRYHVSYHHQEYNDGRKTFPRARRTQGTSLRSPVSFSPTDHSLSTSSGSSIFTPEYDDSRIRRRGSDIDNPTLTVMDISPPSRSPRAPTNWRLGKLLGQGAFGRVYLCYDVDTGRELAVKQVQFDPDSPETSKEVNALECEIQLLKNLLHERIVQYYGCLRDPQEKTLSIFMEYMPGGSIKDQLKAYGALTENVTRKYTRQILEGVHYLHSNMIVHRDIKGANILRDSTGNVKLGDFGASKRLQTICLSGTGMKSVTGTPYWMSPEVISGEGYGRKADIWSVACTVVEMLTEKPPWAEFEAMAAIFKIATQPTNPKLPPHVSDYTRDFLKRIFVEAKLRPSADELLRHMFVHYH
# T28 sequence (P49760 whole entry): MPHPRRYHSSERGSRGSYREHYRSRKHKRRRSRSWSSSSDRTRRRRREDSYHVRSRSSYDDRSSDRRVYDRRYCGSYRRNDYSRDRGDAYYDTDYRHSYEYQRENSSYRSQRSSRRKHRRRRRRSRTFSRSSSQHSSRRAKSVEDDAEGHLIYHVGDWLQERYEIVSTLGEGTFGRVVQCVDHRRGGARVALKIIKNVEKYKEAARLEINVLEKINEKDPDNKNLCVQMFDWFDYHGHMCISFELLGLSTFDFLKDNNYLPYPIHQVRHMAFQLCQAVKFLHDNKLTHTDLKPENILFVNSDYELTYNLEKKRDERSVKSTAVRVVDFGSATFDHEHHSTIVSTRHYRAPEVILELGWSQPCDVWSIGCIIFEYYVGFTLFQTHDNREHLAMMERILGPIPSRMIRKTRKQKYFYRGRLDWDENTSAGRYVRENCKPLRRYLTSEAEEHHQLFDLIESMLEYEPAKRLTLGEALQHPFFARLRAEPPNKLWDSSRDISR
# T21 sequence (P49137 whole entry): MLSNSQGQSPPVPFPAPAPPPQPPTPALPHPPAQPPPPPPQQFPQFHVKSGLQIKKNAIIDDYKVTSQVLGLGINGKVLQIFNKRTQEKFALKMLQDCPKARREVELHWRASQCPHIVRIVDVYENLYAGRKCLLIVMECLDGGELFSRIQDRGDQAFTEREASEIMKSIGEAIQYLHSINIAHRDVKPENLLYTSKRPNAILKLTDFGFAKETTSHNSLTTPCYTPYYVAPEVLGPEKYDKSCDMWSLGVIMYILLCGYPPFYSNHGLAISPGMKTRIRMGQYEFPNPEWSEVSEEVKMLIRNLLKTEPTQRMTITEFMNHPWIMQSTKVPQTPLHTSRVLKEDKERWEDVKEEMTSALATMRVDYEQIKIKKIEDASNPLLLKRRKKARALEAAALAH
structure (smiles),measurement,setting,value
"Cc1cc(/C=C/C#N)cc(C)c1Nc1ccnc(Nc2ccc(C#N)cc2)n1 [rilpivirine, (E)-4-((4-((4-(2-cyanoethenyl)-2,6-dimethylphenyl)amino)pyrimidin-2-yl)amino)benzonitrile]",remaining activity at 1 µM,MYLK2(h),79%
same,remaining activity at 1 µM,[1],98%
same,remaining activity at 1 µM,IRAK1(h),84%
same,remaining activity at 1 µM,MEKK2(h),104%
same,inhibition at 1 µM,"Yes(h); YES, read-out: inhibitory activity",> 70%
same,remaining activity at 1 µM,Yes(h); read-out: % Residual Activity,17%
same,remaining activity at 1 µM,Met(Y1248H)(h),98%
same,remaining activity at 1 µM,NUAK2(h),101%
same,remaining activity at 1 µM,LATS1(h),86%
same,remaining activity at 1 µM,ZAK(h),99%
same,remaining activity at 1 µM,AMPKα1(h),44%
same,remaining activity at 1 µM,TRB2(h),65%
same,remaining activity at 1 µM,IGF-1R(h),89%
same,remaining activity at 1 µM,Mnk2(h),85%
same,remaining activity at 1 µM,Tie2(R849W)(h),86%
same,remaining activity at 1 µM,Fgr(h),37%
same,remaining activity at 1 µM,JAK1(h),79%
same,remaining activity at 1 µM,EphB4(h),86%
same,remaining activity at 1 µM,[2],100%
same,remaining activity at 1 µM,MAP4K5(h),34%
same,remaining activity at 1 µM,[3],101%
same,remaining activity at 1 µM,Flt3(D835Y)(h),94%
same,remaining activity at 1 µM,Snk(h),98%
same,remaining activity at 1 µM,MAPKAP-K2(h),100%
same,remaining activity at 1 µM,TBK1(h),72%
same,remaining activity at 1 µM,PDHK2(h),90%
same,remaining activity at 1 µM,Src(T341M)(h),78%
same,remaining activity at 1 µM,[4],98%
same,remaining activity at 1 µM,CK1ε(h),116%
same,remaining activity at 1 µM,CHK1(h),100%
same,remaining activity at 1 µM,NEK2(h),97%
same,remaining activity at 1 µM,CLK2(h),60%
same,remaining activity at 1 µM,TYK2(h),52%
same,remaining activity at 1 µM,FAK(h),86%
same,remaining activity at 1 µM,ALK(h),80%
same,remaining activity at 1 µM,"Pim-1(h); 1 μM, read-out: % Residual Activity",22%
same,inhibition at 1 µM,"Pim-1(h); PIM1, 1 μM, read-out: inhibitory activity",> 70%
same,remaining activity at 1 µM,MSK2(h),105%
same,remaining activity at 1 µM,TTBK2(h),88%
